The text below walks through data of PMC10257182, “Discovery of senolytics using machine learning” (Nature Communications, 2023).

For this assay, the system named is non-senescent control IMR90 ER:RAS cells. As to the kind of experiment: Nuclei count (Hoechst, high content imaging) senolytic assay, OIS model, non-senescent control cells. In kind it is cell-based, human. In a few lines: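 IMR90 ER:RAS (p14), ±4-OHT 100 nM; cpd 10 nM–10 μM, 10-pt […], 72 h, n=3. Fix formaldehyde, Triton X-100, Hoechst 2 μg/ml final. Readout: imaged nuclei count vs untreated; ouabain positive control.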

Where [1] appears, read: Homo sapiens, IMR-90, 72 h, Control, log (dose) [M] -5, 72 h, mean n=3 (Fig 3C), read-out: Mean % Cell Survival.
The mark [2] stands for this setting: Homo sapiens, IMR-90, 72 h, Control, log (dose) [M] -5.33, 72 h, mean n=3 (Fig 3C), read-out: Mean % Cell Survival.
Where [3] appears, read: Homo sapiens, IMR-90, 72 h, Control, log (dose) [M] -5.66, 72 h, mean n=3 (Fig 3C), read-out: Mean % Cell Survival.
[4] abbreviates: Homo sapiens, IMR-90, 72 h, Control, log (dose) [M] -6, 72 h, mean n=3 (Fig 3C), read-out: Mean % Cell Survival.
Setting [5] is: Homo sapiens, IMR-90, 72 h, Control, log (dose) [M] -6.33, 72 h, mean n=3 (Fig 3C), read-out: Mean % Cell Survival.
The mark [6] stands for this setting: Homo sapiens, IMR-90, 72 h, Control, log (dose) [M] -6.66, 72 h, mean n=3 (Fig 3C), read-out: Mean % Cell Survival.
Where [7] appears, read: Homo sapiens, IMR-90, 72 h, Control, log (dose) [M] -7, 72 h, mean n=3 (Fig 3C), read-out: Mean % Cell Survival.
[8] abbreviates: Homo sapiens, IMR-90, 72 h, Control, log (dose) [M] -7.33, 72 h, mean n=3 (Fig 3C), read-out: Mean % Cell Survival.
Where [9] appears, read: Homo sapiens, IMR-90, 72 h, Control, log (dose) [M] -7.66, 72 h, mean n=3 (Fig 3C), read-out: Mean % Cell Survival.
Setting [10] is: Homo sapiens, IMR-90, 72 h, Control, log (dose) [M] -8, 72 h, mean n=3 (Fig 3C), read-out: Mean % Cell Survival.
Setting [11] is: Homo sapiens, IMR-90, Control cells, log (dose) [M] -6.33, individual replicates, SUP FIG 4C, read-out: % Cell Survival.
[12] abbreviates: Homo sapiens, IMR-90, Control cells, log (dose) [M] -6.66, individual replicates, SUP FIG 4C, read-out: % Cell Survival.
[13] abbreviates: Homo sapiens, IMR-90, Control cells, log (dose) [M] -7, individual replicates, SUP FIG 4C, read-out: % Cell Survival.
Setting [14] is: Homo sapiens, IMR-90, Control cells, log (dose) [M] -7.33, individual replicates, SUP FIG 4C, read-out: % Cell Survival.
The mark [15] stands for this setting: Homo sapiens, IMR-90, Control cells, log (dose) [M] -7.66, individual replicates, SUP FIG 4C, read-out: % Cell Survival.
[16] abbreviates: Homo sapiens, IMR-90, Control cells, log (dose) [M] -8, individual replicates, SUP FIG 4C, read-out: % Cell Survival.
Where [17] appears, read: Homo sapiens, IMR-90, Control, log (dose) [M] -5.66, read-out: % Cell Survival.
[18] abbreviates: Homo sapiens, IMR-90, Control, log (dose) [M] -5.33, read-out: % Cell Survival.
The mark [19] stands for this setting: Homo sapiens, IMR-90, Control, log (dose) [M] -6.33, read-out: % Cell Survival.
[20] abbreviates: Homo sapiens, IMR-90, Control, log (dose) [M] -6.66, read-out: % Cell Survival.
Where [21] appears, read: Homo sapiens, IMR-90, Control, log (dose) [M] -7, read-out: % Cell Survival.
Setting [22] is: Homo sapiens, IMR-90, Control, log (dose) [M] -8, read-out: % Cell Survival.

Where “and” joins values, the source holds several entries; their conditions need not be identical. Equal entries are not always repeated. Where two headings read alike, the source gives them in different places.

On to `CO[C@H]1C[C@@H]2CC[C@@H](C)[C@@](O)(O2)C(=O)C(=O)N2CCCC[C@H]2C(=O)O[C@H]([C@H](C)C[C@@H]2CC[C@@H](O)[C@H](OC)C2)CC(=O)[C@H](C)/C=C(\C)[C@@H](O)[C@@H](OC)C(=O)[C@H](C)C[C@H](C)/C=C/C=C/C=C/1C` [Rapamycin, rapamycin, reference compound], for which the viability at 10 µM was determined as 98.8% under setting [1] and 91.9% (Homo sapiens, IMR-90, Control cells, log (dose) [M] -5, individual replicates, SUP FIG 4C, read-out: % Cell Survival). For the same molecule, under setting [2], the viability at 4.677 µM is 100%. Under setting [3], the viability at 2.188 µM was determined as 89.2%. The viability at 1 µM under setting [4] came out at 83.1%. In addition, the viability at 0.4677 µM came out at 85.7% under setting [5] and 77.2% under setting [11]. Further, the viability at 0.2188 µM under setting [6] amounted to 86.6% and the viability at 0.2188 µM under setting [12] was found to be 83%. In addition, the viability at 0.1 µM reads like this: under setting [7], 92.6%; under setting [13], 91%. Also, the viability at 0.04677 µM reads like this: under setting [8], 86.3%; under setting [14], 89.7%. Further, the viability at 0.02188 µM runs as follows: under setting [9], 95.8%; under setting [15], 93%. The viability at 0.01 µM was 100% under setting [10] and 109% under setting [16]. For the same molecule, the viability at 2.19 µM under setting [17] was 80.5%.

As for `CO[C@H]1C[C@@H]2CC[C@@H](C)[C@@](O)(O2)C(=O)C(=O)N2CCCC[C@H]2C(=O)O[C@H]([C@H](C)C[C@@H]2CC[C@H](n3cnnn3)[C@H](OC)C2)CC(=O)[C@H](C)/C=C(\C)[C@@H](O)[C@@H](OC)C(=O)[C@H](C)C[C@H](C)/C=C/C=C/C=C/1C` [Zotarolimus, zotarolimus, reference compound], the viability at 10 µM under setting [1] came to 94.7%. Also, the viability at 4.677 µM by setting is: under setting [2], 101%; (Homo sapiens, IMR-90, Control cells, log (dose) [M] -5.33, individual replicates, SUP FIG 4C, read-out: % Cell Survival) 107%. Under setting [3], the viability at 2.188 µM turned out to be 84.8%. Besides, the viability at 1 µM under setting [4] was found to be 104% and the viability at 1 µM (Homo sapiens, IMR-90, Control cells, log (dose) [M] -6, individual replicates, SUP FIG 4C, read-out: % Cell Survival) worked out at 109%. In addition, under setting [5], the viability at 0.4677 µM is 108%. In addition, the viability at 0.2188 µM under setting [6] was determined as 99.6% and the viability at 0.2188 µM under setting [12] came out at 99.3%. Also, the viability at 0.1 µM by setting is: under setting [7], 95.5%; under setting [13], 91%; under setting [21], 98.7%. Besides, the viability at 0.04677 µM by setting is: under setting [8], 105%; under setting [14], 102%; (Homo sapiens, IMR-90, Control, log (dose) [M] -7.33, read-out: % Cell Survival) 99.6%. Moreover, the viability at 0.02188 µM came to 110% under setting [9] and 111% under setting [15]. The viability at 0.01 µM stood at 98.2% under setting [10], 93.6% under setting [16] and 99.5% under setting [22]. Under setting [18], the viability at 4.68 µM stood at 92.8%. The viability at 2.19 µM under setting [17] came out at 83.4%. Besides, the viability at 0.468 µM under setting [19] came to 93.7%. Besides, the viability at 0.219 µM under setting [20] came to 88.1%. Also, the viability at 0.0219 µM (Homo sapiens, IMR-90, Control, log (dose) [M] -7.66, read-out: % Cell Survival) was determined as 85.6%.

For the molecule `O=c1oc2c(O)c(O)cc3c(=O)oc4c(O)c(O)cc1c4c23` [Ellagic acid, ellagic acid], the viability at 10 µM came out at 108% under setting [1] and 133% (Homo sapiens, IMR-90, Control, log (dose) [M] -5, read-out: % Cell Survival). Under setting [2], the viability at 4.677 µM worked out at 92.9%. Further, the viability at 2.188 µM under setting [3] came out at 111%. Further, the viability at 1 µM was 105% under setting [4] and 123% (Homo sapiens, IMR-90, Control, log (dose) [M] -6, read-out: % Cell Survival). Further, the viability at 0.4677 µM by setting is: under setting [5], 109%; under setting [11], 118%. For the same molecule, the viability at 0.2188 µM under setting [6] is 111%. The viability at 0.1 µM runs as follows: under setting [7], 102%; under setting [13], 103%; under setting [21], 130%. Besides, the viability at 0.04677 µM under setting [8] is 107%. For the same molecule, the viability at 0.02188 µM under setting [9] came to 112%. The viability at 0.01 µM under setting [10] stood at 104% and the viability at 0.01 µM under setting [22] worked out at 115%. Moreover, the viability at 4.68 µM under setting [18] was determined as 122%. For the same molecule, under setting [17], the viability at 2.19 µM was found to be 120%. In addition, the viability at 0.468 µM under setting [19] was determined as 120%. Also, the viability at 0.219 µM under setting [20] amounted to 122%.

As for `Cc1c(NC(=O)OC[C@@H]2COCCN2)cn2ncnc(Nc3ccc4c(cnn4Cc4cccc(F)c4)c3)c12.Cl.Cl` [BMS 599626 2HCL, BMS 599626 dihydrochloride], the “% Cell Survival” value is 105.353% and 91.3279% and 103.579% (Control cells, log (dose) [M] -5, individual replicates, SUP FIG 4C); 86.7238% and 73.5321% and 81.9018% (Control cells, log (dose) [M] -5.33, individual replicates, SUP FIG 4C); 118.415% and 87.5339% and 100.613% (Control cells, log (dose) [M] -5.66, individual replicates, SUP FIG 4C); 100.107% and 87.4435% and 90.184% (Control cells, log (dose) [M] -6, individual replicates, SUP FIG 4C); 111.884% and 90.2439% and 100.716% (Control cells, log (dose) [M] -6.33, individual replicates, SUP FIG 4C); 106.852% and 86.4499% and 109.816% (Control cells, log (dose) [M] -6.66, individual replicates, SUP FIG 4C). In addition, the “% Cell Survival” value is, setting by setting: (Control cells, log (dose) [M] -7, individual replicates, SUP FIG 4C) 101.927% and 74.8871% and 92.5358%; (Control cells, log (dose) [M] -7.33, individual replicates, SUP FIG 4C) 103.426% and 89.7922% and 99.3865%; (Control cells, log (dose) [M] -7.66, individual replicates, SUP FIG 4C) 119.807% and 91.5989% and 105.93%; (Control cells, log (dose) [M] -8, individual replicates, SUP FIG 4C) 100.749% and 77.0551% and 102.454%; (Control, log (dose) [M] -5) 100.351% and 111.029% and 102.815%; (Control, log (dose) [M] -5.33) 101.964% and 126.351% and 107.239%. In addition, the “% Cell Survival” value (Control, log (dose) [M] -5.66) was 131.276% and 125.833% and 112.534%; the “% Cell Survival” value (Control, log (dose) [M] -6) is 101.823% and 113.768% and 114.812%; the “% Cell Survival” value (Control, log (dose) [M] -6.33) is 107.574% and 113.397% and 102.681%; the “% Cell Survival” value (Control, log (dose) [M] -6.66) is 98.317% and 111.029% and 104.088%; the “% Cell Survival” value (Control, log (dose) [M] -7) was 103.156% and 106.366% and 100.335%; the “% Cell Survival” value (Control, log (dose) [M] -7.33) is 103.086% and 108.882% and 96.7828%. Further, the “% Cell Survival” value is, setting by setting: (Control, log (dose) [M] -7.66) 97.5456% and 102.221% and 100.201%; (Control, log (dose) [M] -8) 96.0028% and 99.7779% and 101.072%. Besides, the “Mean % Cell Survival” value by setting is: (Control, log (dose) [M] -5, 72 h, mean n=3 (Fig 3C)) 100.087%; (Control, log (dose) [M] -5.33, 72 h, mean n=3 (Fig 3C)) 80.7192%; (Control, log (dose) [M] -5.66, 72 h, mean n=3 (Fig 3C)) 102.188%; (Control, log (dose) [M] -6, 72 h, mean n=3 (Fig 3C)) 92.5782%; (Control, log (dose) [M] -6.33, 72 h, mean n=3 (Fig 3C)) 100.948%; (Control, log (dose) [M] -6.66, 72 h, mean n=3 (Fig 3C)) 101.039%. Also, the “Mean % Cell Survival” value came out at 89.7834% (Control, log (dose) [M] -7, 72 h, mean n=3 (Fig 3C)); 97.535% (Control, log (dose) [M] -7.33, 72 h, mean n=3 (Fig 3C)); 105.779% (Control, log (dose) [M] -7.66, 72 h, mean n=3 (Fig 3C)); 93.4195% (Control, log (dose) [M] -8, 72 h, mean n=3 (Fig 3C)).
